These are literature values, as cited in patent US20040029892A1, “Compositions and dosage forms for application in the oral cavity in the treatment of mykoses” (priority 2003, published 2004).

The conditions of the series: almost insoluble.

With `CCC(C)n1ncn(-c2ccc(N3CCN(c4ccc(OCC5COC(Cn6cncn6)(c6ccc(Cl)cc6Cl)O5)cc4)CC3)cc2)c1=O` (racemic) [itraconazole, (±)-cis-4-[4-[4-[4-[[2-(2,4-dichlorophenyl)-2(1H-1,2,4-triazol-1-yl-methyl)-1,3-dioxolan-4-yl]methoxy]phenyl]-1piperazinyl]phenyl]-2,4-dihydro-2-(1-methylpropyl)-3H-1,2,4-triazol-3-one], the solubility in water entry was “less than 1 μg/ml”.
